“Also recorded” adds a separate entry of the source.
Columns and labels:
[1] = system: LPS (Salmonella typhosa)-induced hypotension in unoperated rats; test: endotoxin (LPS)-induced hypotension, unoperated rats; type: in vivo, rat
Method: (§1) The animal model of endotoxic shock used involves intravenous injection of endotoxin (3.5 mg/kg of lipopolysaccharide (LPS) from Salmonella typhosa) into pentobarbital-anaesthetized Sprague-Dawley rats, to produce a fall in mean arterial blood pressure within 3 to 5 minutes. The endotoxin was injected slowly over 1 min. via the jugular vein, and mean arterial blood pressure in mm mercury (MABP) was monitored continuously for 60 min, with the average blood pressure being calculated at 15, 30, 45 and 60 min. Studies were performed on unoperated rats and rats with their submandibular glands removed (sialadenectomized).
(§2) The results shown in Table 1 are the averages of three different experiments using the protocol defined above. The data shown represent the average decrease in MABP (dec MABP) and the % Decrease in MABP over the 60 minutes following LPS administration. SGP-S (100μg/kg) and SGP-T (100 μg/kg) were administered 90 min. before LPS. […] Neither SGP-T nor SGP-S, when given prior to the LPS challenge, had appreciable effects on MABP.
Overall, SGP-T reduced by 60% the decrease and the percent decrease in MABP induced by endotoxin, relative to pre-LPS values. SGP-S, on the other hand, had no effect on the shock induced by endotoxin in unoperated rats.
(§3) The dose-response relationship of the inhibitory effect of SGP-T and SGP-S on endotoxin-induced hypotension was also examined and the results are shown in FIG. 1.

[2] = system: LPS (Salmonella typhosa)-induced hypotension in sialadenectomized rats; test: endotoxin (LPS)-induced hypotension, sialadenectomized rats; type: in vivo, rat
Method: as §1, §2, §3

[3] = system: Sprague-Dawley rats sensitized with Nippostrongylys brasiliensis; test: antigen-induced anaphylactic hypotension, Nippostrongylus brasiliensis-sensitized rats; type: in vivo, rat; conditions: given 10 minutes prior to worm antigen (100 worm equivalents)
Method: The effect of SGP-T on antigen-induced anaphylactic hypotension was examined in Sprague-Dawley rats sensitized 5 weeks previously with the nematode parasite Nippostrongylys brasiliensis. Under pentobarbital anesthesia, worm antigen (100 worm equivalents) was injected and arterial blood pressure was followed for 1 hour.

[4] = system: jejunal segments from ovalbumin-sensitized rats; test: antigen-induced jejunal segment contraction, URE/OA ratio, Example 7; parameters: species or system rat
Method: Animals and Tissue Preparation: Male Sprague-Dawley rats were sensitized to egg albumin (ovalbumin, OA) with 50 ng of Pertussis bordetella toxin as an adjuvant. Four to six weeks after sensitization, the rats were anaethetised with sodium pentobarbital and the jejunum was removed. Two cm sections of the jejunum were mounted in tissue baths under 0.75 g of isometric tension, and the tissues were allowed to equilibrate for 20 min prior to beginning the experiment.
10 μg of SGP-T or one of its analogues or fragments was added to a bath, while control tissues received the saline vehicle. Following a 10 min incubation, 100 ng of OA prepared in 0.9% saline was added. After the tissue had reached a maximal contractile response, the tissues were washed extensively to remove OA and peptide and, after the tissues had established baseline tension, 20 μg of urecholine (URE; a cholinergic-muscarinic receptor agonist) was added to determine the maximal contractile response of the tissue. The tissues were then removed from the bath, cleared of all underlying mucosa and the weight of the remaining muscle was determined.
Data Analysis: The tension (measured in grams) per gram tissue weight generated by each tissue in response to OA and URE was calculated. To normalize for differences in the ability of each tissue segment to contract in response to the muscle stimulants, the contractile response to […]. Thus, a measure of the antigen-induced contraction was expressed as the URE/OA ratio.
The data was analyzed using the one-way analysis of variance (ANOVA) and differences between groups was determined using the Student t-test for unpaired samples. The results are shown in FIGS. 7 and 8 and Tables 3 and 4.

[5] = system: neutrophil influx into carrageenin-soaked sponge in rats; test: neutrophil migration into carrageenin-soaked sponge; type: in vivo, rat
Method: The subcutaneous implantation of a carrageenin-soaked sponge in rats is a model used to evaluate agents that modulate neutrophil chemotaxis, as carrageein is a potent chemotactic agent and the sponge serves as a collecting reservoir.
Under halothane anaesthesia the sponge was removed from its subcutaneous site and the fluid was squeezed from it into a test tube. Following centrifugation at 2,000 g for 10 min, the exudate was decanted and the remaining cells were suspended in 4 ml of 0.9% saline, and their number determined using a Coulter Counter. One ml of the remaining cell suspension was extracted for use in the superoxide assay.
Intravenous injections of SGP-T inhibited neutrophil influx into a carrageenin-soaked sponge in a dose-dependent manner (FIG. 4). When the ability of neutrophils obtained from the carrageenin-soaked sponges to generate superoxide anion was evaluated, those obtained from saline-treated rats were totally refractory to f MLP and phorbol myristate acetate (PMA).

[6] = system: ovalbumin-sensitized Sprague-Dawley rats, submandibular glands removed; test: anaphylactic hypotension and heart function (VPSP, dP/dt), Example 10; type: in vivo, rat; conditions: for integrated (average) decrease in VPSP over the 30 min: 10 min prior to antigen, saline control 46.2±6.5
Method: Methods: Sprague-Dawley rats (200–300 g) were sensitized with 1 mg ovalbumin and 50 ng Pertussin toxin (Sigma) (24) one month prior to experimentation. The submandibular glands were removed bilaterally 7 days prior to the experiment by previously described procedures (23). Rats were anesthetized with sodium pentobarbital (65 mg/kg) and a tracheal tube (PE240 polyethylene tubing) was inserted before performing further surgeries. The jugular vein was-cannulated for injection of ovalbumin antigen, which was given as a bolus (100 μg/kg) over 10 sec. The right carotid artery was cannulated and the cannula tip was slowly advanced into the left ventricle, as detected when diastolic pressure fell to near 0 mmHg. The ventricular cannula was connected to a TXD-310 transducer and heart function parameters were recorded using a Digi-Med Heart Performance Analyser (Micro-Med, Louisville, Ky.). The effects of anaphylaxis on heart function were analysed by comparing the changes in ventricular peak systolic pressure (VPSP), and in the rate of ventricular contraction during systole (dP/dt) and relaxation during distole (−dP/dt). Antigen was injected at 10 min. The anaphylactic response was followed for 30 min.
Very rapidly (within 1 min) after the intravenous injection of antigen into ovalbumin-sensitized rats, VPSP dropped and minimal ventricular pressures were measured at 5 min after initiation of the anaphylactic reaction.
To determine if anaphylaxis directly affected heart function, the percent changes in VPSP were plotted against percent changes in dP/dt and −dP/dt. […] By analysis of variance, the slopes of the regression lines of dP/dt and −dP/dt were not different from unity.

[7] = peptide 100 μg/kg 90 min before LPS 3.5 mg/kg iv

NH2-Thr-Asp-Ile-Phe-Glu-Gly-Gly-COOH (H-TDIFEGG-OH) [SGP-T, submandibular gland peptide T, TDIFEGG]
effect on drop in MABP / shock induced by endotoxin [1]: reduced the drop in MABP | optimal dose for reducing LPS-induced hypotension [1]: higher than in operated animals | % Dec = percent decrease in MABP relative to MABPbef [1, 7]: −11.6% | MABPaft = average MABP for 60 mins after LPS injection [1, 7]: 99.6 ± 3.8 mm Hg | dec MABP = decrease in MABP after LPS relative to MABPbef [1, 7]: −13.6 ± 2.9 mm Hg | reduction of the decrease and the percent decrease in MABP induced by endotoxin ([1]; relative to pre-LPS values): 60% | prevention of shock ([2]; doses higher than 10 μg/kg): less effective | LPS-provoked drop in blood pressure ([2]; doses of 1, 3.5 and 10 μg/kg): significantly prevented | decrease in blood pressure induced by LPS, dose-response ([2]; intravenously 1.5 hours before LPS): dose-dependently inhibited | % Dec = percent decrease in MABP relative to MABPbef [2, 7]: −36.3 ± 3.3% | MABPaft = average MABP for 60 mins after LPS injection [2, 7]: 77.2 ± 3.9 mm Hg | dec MABP = decrease in MABP after LPS relative to MABPbef [2, 7]: −46.1 ± 4.9 mm Hg | protection against anaphylactic hypotension [3]: dose-dependently protected | reduction of the anaphylactic reaction ([4]; 10 μg of peptide): more than 50% | URE/OA ([4]; Table 4, 10 μg peptide, 100 ng OA, 20 μg urecholine, saline 5.7 ± 1.0): 13.9 ± 5.6 | neutrophil influx into a carrageenin-soaked sponge ([5]; intravenous injections): inhibited | inhibition of neutrophil migration ([5]; rat, in vivo): approximately 50% | integrated (average) decrease in VPSP over the 30 min ([6]; 10 μg/kg): 16.7±8.3 mm Hg | integrated (average) decrease in VPSP over the 30 min ([6]; 100 μg/kg): 15.9±8.0 mm Hg | VPSP by the end of the experiment ([6]; 10 and 100 μg/kg, 30 min after antigen): attained pre-antigen values | initial anaphylactic reaction (initial blood pressure drop) ([6]; FIG. 12): does not prevent | sustained anaphylactic reaction ([6]; FIG. 12): does prevent | drop in blood pressure elicited by the anaphylactic reaction ([6]; doses of 35 and 100 μg/kg): significantly reduced | anaphylactic hypotension / decrease in VPSP provoked by antigen ([6]; injected 10 min prior to antigen (100 μg/kg)): protected the rats against anaphylactic hypotension; also recorded: reduced significantly | protection against antigen elicited hypotension ([6]; lower (10 μg/kg) and higher (350 μg/kg) doses): Neither lower (10 μg/kg) nor higher doses (350 μg/kg) of SGP-T protected
